Where a name gives a salt, the structure may show the parent alone.
test system: HeLa; test: Proliferation assay (crystal violet), HeLa; assay type: cell-based; conditions: HeLa cells; 4 days incubation; crystal violet staining; read-out: IC50 inhibition of proliferation, HeLa
Procedure, shortened: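 Cells plated at 1000-5000/well with 10% FCS, treated after 24 h with compound at 0.001-10 μM (0.5% DMSO) for 4 days. Glutaraldehyde-fixed, crystal violet-stained, A595 normalised to zero-point plate (0%) and untreated cells (100%); IC50 by 4-parameter fit.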

**Q.** How did the IC50 turn out when Cc1nsc(Nc2cnc(C(F)(F)F)cn2)c1C(=O)Nc1ccc(F)c(OCC2CCCN(CC(F)F)C2)c1 (stereo not drawn) [Example 335, N-(3-{[1-(2,2-difluoroethyl)piperidin-3-yl]methoxy}-4-fluorophenyl)-3-methyl-5-{[5-(trifluoromethyl)pyrazin-2-yl]amino}-1,2-thiazole-4-carboxamide] was run?
**A.** The IC50 was 840 nM.

**Q.** With Cc1nsc(Nc2cnc(C(F)(F)F)cn2)c1C(=O)Nc1ccc(O[C@@H]2CCN(CC(F)(F)F)C2)nc1 [Example 421, 3-Methyl-N-(6-{[(3R)-1-(2,2,2-trifluoroethyl)pyrrolidin-3-yl]oxy}pyridin-3-yl)-5-{[5-(trifluoromethyl)pyrazin-2-yl]amino}-1,2-thiazole-4-carboxamide] as the compound, how does the IC50 read?
**A.** The IC50 was 550 nM.

**Q.** How did the IC50 turn out when Cc1nsc(Nc2cnc(C(F)(F)F)cn2)c1C(=O)Nc1ccc(OC[C@@H]2CCCN(CCC(F)(F)F)C2)nc1 [Example 422, 3-Methyl-5-{[5-(trifluoromethyl)pyrazin-2-yl]amino}-N-(6-{[(3R)-1-(3,3,3-trifluoropropyl)piperidin-3-yl]methoxy}pyridin-3-yl)-1,2-thiazole-4-carboxamide] was run?
**A.** The IC50 was 370 nM.

**Q.** Cc1nsc(Nc2cnc(C(F)(F)F)cn2)c1C(=O)Nc1ccc(O[C@@H]2CCN(CCC(F)(F)F)C2)nc1 [Example 423, 3-Methyl-5-{[5-(trifluoromethyl)pyrazin-2-yl]amino}-N-(6-{[(3R)-1-(3,3,3-trifluoropropyl)pyrrolidin-3-yl]oxy}pyridin-3-yl)-1,2-thiazole-4-carboxamide] was tested. Which IC50 did it give?
**A.** Its IC50 is 410 nM.

**Q.** Which IC50 does the source give for Cc1nsc(Nc2cnc(C(F)(F)F)cn2)c1C(=O)Nc1ccc(OC2CCN(CCC(F)(F)F)CC2)nc1 [Example 426, 3-Methyl-5-{[5-(trifluoromethyl)pyrazin-2-yl]amino}-N-(6-{[1-(3,3,3-trifluoro-propyl)piperidin-4-yl]oxy}pyridin-3-yl)-1,2-thiazole-4-carboxamide, Salt with Hydrochloric Acid] here?
**A.** The IC50 was 420 nM.

same assay, conditions: Homo sapiens, HeLa, 96 h, HeLa cells; 4 days incubation; crystal violet staining; read-out: IC50 inhibition of proliferation, HeLa

**Q.** How did the IC50 turn out when Cc1nsc(Nc2cnc(C(F)(F)F)cn2)c1C(=O)Nc1ccc(F)c(C(N)=O)c1 [Example 151, N-(3-carbamoyl-4-fluorophenyl)-3-methyl-5-{[5-(trifluoromethyl)pyrazin-2-yl]amino}-1,2-thiazole-4-carboxamide] was run?
**A.** Its IC50 is 8900 nM.

**Q.** How did the IC50 turn out when CC(=O)Nc1cc(NC(=O)c2c(C)nsc2Nc2ccc(C#N)cn2)ccc1F [Example 152, N-(3-acetamido-4-fluorophenyl)-5-[(5-cyanopyridin-2-yl)amino]-3-methyl-1,2-thiazole-4-carboxamide] was run?
**A.** The IC50 was over 10000 nM.

**Q.** How did the IC50 turn out when Cc1nsc(Nc2cnc(C(F)(F)F)cn2)c1C(=O)Nc1ccc(C(=O)NCCN2CCCC(F)(F)C2)cc1 [Example 153, N-(4-{[2-(3,3-difluoropiperidin-1-yl)ethyl]carbamoyl}phenyl)-3-methyl-5-{[5-(trifluoromethyl)pyrazin-2-yl]amino}-1,2-thiazole-4-carboxamide] was run?
**A.** The IC50 was 2800 nM.

**Q.** Which IC50 does the source give for Cc1nsc(Nc2cnc(C(F)(F)F)cn2)c1C(=O)Nc1ccc(C(=O)N2CCN(CC(F)F)CC2)cc1 [Example 154, N-(4-{[4-(2,2-difluoroethyl)piperazin-1-yl]carbonyl}phenyl)-3-methyl-5-{[5-(trifluoromethyl)pyrazin-2-yl]amino}-1,2-thiazole-4-carboxamide] here?
**A.** The IC50 was 2500 nM.

**Q.** With Cc1nsc(Nc2cncc(C(F)(F)F)n2)c1C(=O)Nc1ccc(C(=O)NCCN2CCCC(F)C2)cc1 (stereo not drawn) [Example 155, N-(4-{[2-(3-fluoropiperidin-1-yl)ethyl]carbamoyl}phenyl)-3-methyl-5-{[6-(trifluoromethyl)pyrazin-2-yl]amino}-1,2-thiazole-4-carboxamide] as the compound, how does the IC50 read?
**A.** The IC50 was 9900 nM.

**Q.** Cc1nsc(Nc2cnc3ccccc3n2)c1C(=O)Nc1ccc(C(=O)NCCN2CCCC(F)(F)C2)cc1 [Example 156, N-(4-{[2-(3,3-difluoropiperidin-1-yl)ethyl]carbamoyl}phenyl)-3-methyl-5-(quinoxalin-2-ylamino)-1,2-thiazole-4-carboxamide] was tested. Which IC50 did it give?
**A.** The IC50 was over 10000 nM.

**Q.** How did the IC50 turn out when Cc1nsc(Nc2cnc3ccccc3n2)c1C(=O)Nc1ccc(C(=O)N2CCN(CC(F)F)CC2)cc1 [Example 157, N-(4-{[4-(2,2-difluoroethyl)piperazin-1-yl]carbonyl}phenyl)-3-methyl-5-(quinoxalin-2-ylamino)-1,2-thiazole-4-carboxamide] was run?
**A.** Its IC50 is over 10000 nM.

**Q.** How did the IC50 turn out when Cc1nsc(Nc2cnc3ccccc3n2)c1C(=O)Nc1ccc(C(=O)NC2CN(C(=O)OC(C)(C)C)CC(F)(F)C2)cc1 (stereo not drawn) [Example 158, tert-butyl 3,3-difluoro-5-{[4-({[3-methyl-5-(quinoxalin-2-ylamino)-1,2-thiazol-4-yl]carbonyl}amino)benzoyl]amino} piperidine-1-carboxylate] was run?
**A.** The IC50 was 3200 nM.

**Q.** Cc1nsc(Nc2cnc3ccccc3n2)c1C(=O)Nc1ccc(C(=O)N2CCCN(CC(F)(F)F)CC2)cc1 [Example 159] was tested. Which IC50 did it give?
**A.** The IC50 was 2300 nM.

**Q.** For Cc1nsc(Nc2cnc(C(F)(F)F)cn2)c1C(=O)Nc1ccc(OC2CCN(C(C)C)CC2)nc1 [Example 160, N-{6-[(1-isopropylpiperidin-4-yl)oxy]pyridin-3-yl}-3-methyl-5-{[5-(trifluoromethyl)pyrazin-2-yl]amino}-1,2-thiazole-4-carboxamide], which IC50 is on record?
**A.** Its IC50 is 3300 nM.

**Q.** How did the IC50 turn out when Cc1nsc(Nc2cnc(C(F)(F)F)cn2)c1C(=O)Nc1ccc(OC2CCN(CCF)CC2)c(F)c1 [Example 162, N-(3-fluoro-4-{[1-(2-fluoroethyl)piperidin-4-yl]oxy}phenyl)-3-methyl-5-{[5-(trifluoromethyl)pyrazin-2-yl]amino}-1,2-thiazole-4-carboxamide] was run?
**A.** Its IC50 is 330 nM.

**Q.** With Cc1nsc(Nc2cnc(C(F)(F)F)cn2)c1C(=O)Nc1ccc(OC2CCN(CC(F)(F)F)CC2)c(F)c1 [Example 163, N-(3-fluoro-4-{[1-(2,2,2-trifluoroethyl)piperidin-4-yl]oxy}phenyl)-3-methyl-5-{[5-(trifluoromethyl)pyrazin-2-yl]amino}-1,2-thiazole-4-carboxamide] as the compound, how does the IC50 read?
**A.** The IC50 was 160 nM.

**Q.** For Cc1nsc(Nc2cnc(C(F)(F)F)cn2)c1C(=O)Nc1ccc(OC2CCN(CC(F)F)CC2)c(F)c1 [Example 164, N-(4-{[1-(2,2-difluoroethyl)piperidin-4-yl]oxy}-3-fluorophenyl)-3-methyl-5-{[5-(trifluoromethyl)pyrazin-2-yl]amino}-1,2-thiazole-4-carboxamide], which IC50 is on record?
**A.** The IC50 was 160 nM.

**Q.** Cc1nsc(Nc2cnc(C(F)(F)F)cn2)c1C(=O)Nc1ccc(C(=O)NC2CCN(CC(F)(F)F)CC2)cc1 [Example 165, 3-methyl-N-(4-{[1-(2,2,2-trifluoroethyl)piperidin-4-yl]carbamoyl}phenyl)-5-{[5-(trifluoromethyl)pyrazin-2-yl]amino}-1,2-thiazole-4-carboxamide] was tested. Which IC50 did it give?
**A.** Its IC50 is 3200 nM.

**Q.** Cc1nsc(Nc2cncc(C(F)(F)F)n2)c1C(=O)Nc1ccc(OCC2CCCN(C(=O)OC(C)(C)C)C2)nc1 (stereo not drawn) [Example 166, tert-butyl 3-{[(5-{[(3-methyl-5-{[6-(trifluoromethyl)pyrazin-2-yl]amino}-1,2-thiazol-4-yl)carbonyl]amino}pyridin-2-yl)oxy]methyl}piperidine-1-carboxylate] was tested. Which IC50 did it give?
**A.** The IC50 was 830 nM.

**Q.** How did the IC50 turn out when Cc1nsc(Nc2cncc(C(F)(F)F)n2)c1C(=O)Nc1ccc(C(=O)NC2CCN(CC(F)(F)F)CC2)cc1 [Example 167, 3-methyl-N-(4-{[1-(2,2,2-trifluoroethyl)piperidin-4-yl]carbamoyl}phenyl)-5-{[6-(trifluoromethyl)pyrazin-2-yl]amino}-1,2-thiazole-4-carboxamide] was run?
**A.** The IC50 was 4300 nM.

**Q.** Which IC50 does the source give for Cc1nsc(Nc2cncc(C(F)(F)F)n2)c1C(=O)Nc1ccc(F)c(OC2CCN(C(=O)OC(C)(C)C)CC2)c1 [Example 168, tert-butyl 4-(2-fluoro-5-{[(3-methyl-5-{[6-(trifluoromethyl)pyrazin-2-yl]amino}-1,2-thiazol-4-yl)carbonyl]amino}phenoxy)piperidine-1-carboxylate] here?
**A.** Its IC50 is 910 nM.

**Q.** How did the IC50 turn out when Cc1nsc(Nc2cnc3ccccc3n2)c1C(=O)Nc1ccc(N2CCOCC2)nc1 [Example 169, 3-methyl-N-[6-(morpholin-4-yl)pyridin-3-yl]-5-(quinoxalin-2-ylamino)-1,2-thiazole-4-carboxamide] was run?
**A.** The IC50 was over 10000 nM.

**Q.** Which IC50 does the source give for Cc1nsc(Nc2ccc(C#N)cn2)c1C(=O)Nc1ccc(N[C@@H](C)C(=O)OC(C)(C)C)nc1 [Example 170, tert-butyl N-{5-[({5-[(5-cyanopyridin-2-yl)amino]-3-methyl-1,2-thiazol-4-yl}carbonyl)amino]pyridin-2-yl}alaninate] here?
**A.** Its IC50 is over 10000 nM.

**Q.** Cc1nsc(Nc2ccc(C#N)cn2)c1C(=O)Nc1ccc(NC2CCCN(C(=O)OC(C)(C)C)C2)nc1 (stereo not drawn) [Example 171, tert-butyt 3-({5-[({5-[(5-cyanopyridin-2-yl)amino]-3-methyl-1,2-thiazol-4-yl}carbonyl)amino]pyridin-2-yl}amino)piperidine-1-carboxylate] was tested. Which IC50 did it give?
**A.** Its IC50 is 6200 nM.

**Q.** How did the IC50 turn out when Cc1nsc(Nc2cnc3ccccc3n2)c1C(=O)Nc1ccc(NC2CC2)nc1 [Example 172, N-[6-(cyclopropylamino)pyridin-3-yl]-3-methyl-5-(quinoxalin-2-ylamino)-1,2-thiazole-4-carboxamide] was run?
**A.** Its IC50 is over 10000 nM.

**Q.** With COc1ccc(NC(=O)c2c(C)nsc2Nc2ccc(C#N)cn2)c(N2CCOCC2)n1 [Example 173, 5-[(5-cyanopyridin-2-yl)amino]-N-[6-methoxy-2-(morpholin-4-yl)pyridin-3-yl]-3-methyl-1,2-thiazole-4-carboxamide] as the compound, how does the IC50 read?
**A.** The IC50 was over 10000 nM.

Source: patent publication US20170334899A1, “AMINO-SUBSTITUTED ISOTHIAZOLES” (Bayer Pharma Aktiengesellschaft, priority 2014, published 2017)
